For one test, the target named is T1, PDK1 (Homo sapiens, UniProt O15530).
T1 sequence (O15530 1-556): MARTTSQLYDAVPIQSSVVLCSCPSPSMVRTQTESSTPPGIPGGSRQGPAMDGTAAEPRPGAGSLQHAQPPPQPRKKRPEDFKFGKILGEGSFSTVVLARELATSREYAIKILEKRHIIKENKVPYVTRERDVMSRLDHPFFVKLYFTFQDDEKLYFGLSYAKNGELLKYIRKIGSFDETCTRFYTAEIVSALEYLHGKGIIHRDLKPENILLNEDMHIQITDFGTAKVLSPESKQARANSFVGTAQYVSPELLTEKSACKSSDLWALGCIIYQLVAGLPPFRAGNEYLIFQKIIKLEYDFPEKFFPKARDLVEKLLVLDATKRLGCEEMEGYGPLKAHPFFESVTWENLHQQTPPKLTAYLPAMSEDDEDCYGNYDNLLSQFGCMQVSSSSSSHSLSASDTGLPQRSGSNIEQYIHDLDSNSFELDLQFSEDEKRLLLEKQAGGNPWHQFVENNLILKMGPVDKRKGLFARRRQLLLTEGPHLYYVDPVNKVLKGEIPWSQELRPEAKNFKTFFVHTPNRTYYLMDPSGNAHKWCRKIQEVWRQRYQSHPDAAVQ
The experiment in a line: PDK1 thermal denaturation. The settings on record: data not shown.

For the next test, the target named is T2, PKCζ (Homo sapiens, UniProt Q05513).
T2 construct: deuteron uptake in a full-length AGC kinase; For this analysis we chose PKCζ; made in house; host or cells: HEK293
T2 sequence (Q05513 1-592): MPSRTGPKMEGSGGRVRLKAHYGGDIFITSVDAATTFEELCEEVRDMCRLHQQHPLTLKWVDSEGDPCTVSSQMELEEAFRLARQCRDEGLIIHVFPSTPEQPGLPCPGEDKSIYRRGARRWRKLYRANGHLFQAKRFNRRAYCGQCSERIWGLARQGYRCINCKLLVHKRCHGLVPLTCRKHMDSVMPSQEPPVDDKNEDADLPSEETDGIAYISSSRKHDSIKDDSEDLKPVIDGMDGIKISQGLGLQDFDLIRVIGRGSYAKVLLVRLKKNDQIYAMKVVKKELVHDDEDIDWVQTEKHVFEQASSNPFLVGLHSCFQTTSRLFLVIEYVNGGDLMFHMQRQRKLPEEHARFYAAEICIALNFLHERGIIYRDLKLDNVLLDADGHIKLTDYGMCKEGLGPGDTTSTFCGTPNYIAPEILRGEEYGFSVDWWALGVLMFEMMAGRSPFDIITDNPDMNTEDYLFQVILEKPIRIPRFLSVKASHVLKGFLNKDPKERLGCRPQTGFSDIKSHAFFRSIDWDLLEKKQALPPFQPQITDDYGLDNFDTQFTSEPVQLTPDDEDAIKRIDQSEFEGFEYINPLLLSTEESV
Briefly: AGC kinase panel activity assay (MBP). To be noted: for PKCξ (%) activity: 1% DMSO = 100%. The class given is biochemical. As for the experimental part: Protein kinase activity tests were performed essentially as previously described (Balendran et al., 2000; Biondi et al., 2000; Biondi et al., 2001). Substrates used were either MBP (for PKCζ or polypeptides (Crosstide for PKB, S6K, SGK and PRK2; T308tide for PDK1, and Kemptide for PKA). PKA (Sigma) was measured in the presence of 100 μM cAMP. Alternatively, assays were performed in a 96 well format, aliquots spotted on p81 phosphocellulose papers (Whatmann), washed in 0.01% phosphoric acid, dried, and then exposed and analysed using Phospholmager technology (Storm, Molecular Dynamics). Activity measurements were performed in duplicates with less than 10% difference between duplicate pairs. Experiments were repeated at least twice, although most of the experiments were repeated multiple times, with similar results.
Activity assays for each kinase were performed as described in Materials and Methods in the presence of 1% DMSO (100%). Except PKA, all protein kinases were produced as a GST-fusion. S6K1, PKBα, SGK mutants used were S6K1-T2-[Thr412Glu], PKBa[Ser473Asp] and ΔN-SGK[Ser422Asp].

For the next test, the target named is GST-S6K11-365 (Rattus norvegicus, UniProt P67999). Briefly: Global amide hydrogen exchange (HXMS). More on the design: made in house. To be noted: early time points; peptide 150 molar excess. The text has this:
(A) Effect of S6K1 tail peptides, described in the legend to FIG. 13, on global deuteron uptake by purified GST-56K11-365. (B) Kinase activity of wt and mutant GST-PKCζ. (C) Global deuteron uptake by wt and mutant GST-PKCζ. (D) Local deuteron uptake by wt and mutant GST-PKCζ. In the PKCζ model, peptides showing strong and no-or-slight protection by the tail phosphate are shown in pink and grey, respectively. The panels show HX curves of the peptides. Experiments were repeated 2 times (A, C, D) or 3 times (B) and data are means±range (A, C) or ±SD (B)
Amide hydrogen (^1H/^2H) exchange monitored by mass spectrometry (HXMS). D2O (99.9 atom % D) was obtained from Cambridge Isotope Laboratories. Isotopic exchange was initiated by diluting 8 μl 20-40 μM protein in 300 μl deuterated buffer (25 mM Tris, 150 mM NaCl, 1 mM dithiothreitol, 10 mM MgCl2, 25 mM glutathione, pD 7.1 uncorrected value). The exchange was carried out at 30° C., and 75 μl aliquots were collected after 1 min, 5 min, 15 min, and 45 min. […]
The LC setup was described previously (Jorgensen et al., 2004), with the modification that proteins were desalted for 5 min and eluted with a 9 min linear gradient (14% to 70% acetonitrile, 0.05% TFA) to separate the free GST from the GST-tagged kinases of interest in the global hydrogen exchange analysis. […] The HXMS data on peptide level were analyzed by HX-Express (Weis et al., 2006). […]

Chain of GST-S6K11-365 (P67999 24-388): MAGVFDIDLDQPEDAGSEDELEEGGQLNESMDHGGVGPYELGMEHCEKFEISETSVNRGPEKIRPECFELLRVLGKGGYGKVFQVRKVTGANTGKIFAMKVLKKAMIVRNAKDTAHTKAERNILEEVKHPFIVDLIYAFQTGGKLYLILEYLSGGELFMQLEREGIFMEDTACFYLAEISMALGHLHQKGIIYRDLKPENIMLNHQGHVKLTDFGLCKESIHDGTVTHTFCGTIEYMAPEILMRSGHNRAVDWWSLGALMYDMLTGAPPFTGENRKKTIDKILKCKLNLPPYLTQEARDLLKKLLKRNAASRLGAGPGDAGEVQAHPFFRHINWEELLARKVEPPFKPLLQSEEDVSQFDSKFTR

Regarding `O=C(O)CSC(CC(=O)c1ccc(Cl)cc1)c1ccccc1` (stereo not drawn) [Compound 1], the “stabilization of PDK1 to thermal denaturation (in words)” value on PDK1 is given as “did not stabilize”. Also, at PKCζ (20 μM), the “effect on PKCζ activity (in words)” value was “no significant effect”. Also, the “PKCξ (%) activity” value worked out at 94% at PKCζ (20 μM compound) and 21% at PKCζ (200 μM compound). The “inhibition of PKCζ (in words)” value at PKCζ (panel, concentration not given) is “inhibited PKCζ”.
As for `COC(=O)CSC(CC(=O)c1ccc(Cl)cc1)c1ccccc1` (stereo not drawn) [Compound 2], the “PKCξ (%) activity” value at PKCζ (20 μM compound) turned out to be 104%; at PKCζ (200 μM compound), 86%.
Regarding “S371/T389: synthetic S6K1 tail peptide (residues 366-395), non-phosphorylated”, the “fewer deuterons incorporated in S6K11-365 versus no peptide” value with GST-S6K11-365 is reported as “no effect”.
On the same count and under the same terms, for “S371/pT389: synthetic S6K1 tail peptide (residues 366-395) phosphorylated in the HM” the value was “≈ 10 deuterons”.

Source of the values: patent US20110152166A1, “METHOD OF MODULATION OF PROTEIN PHOSPHORYLATION-DEPENDENT CONFORMATIONAL TRANSITIONS WITH LOW MOLECULAR WEIGHT COMPOUNDS” (priority 2006, published 2011).
